Consider 25 compounds from patent US9783527B2, “Indazole ureas and method of use” (AbbVie Inc., priority 2014, dated 2017).

One assay concerns the target human Nav1.8 (Homo sapiens (Human), UniProt Q9Y5Y9). Nature of the assay: FRET-based membrane potential assay, recombinant human sodium channel Nav1.8. Format: cell-based. Conditions: HEK293 cells stably expressing recombinant human Nav1.8; depolarization with veratridine (EC80) + scorpion venom. The method, then:
FRET-Based Membrane Potential Assays.
Recombinant, Human Sodium Channel, Nav1.8.
Two days prior to the experiment, frozen HEK293 cells stably expressing recombinant human Nav1.8 (Essen, Ann Arbor, Mich.) were quickly thawed and plated at 22,500 cells/well in growth medium [MEM (Invitrogen #11095) with 10% FBS (Invitrogen #10082), 1 mM sodium pyruvate (Invitrogen, #C11360), 10 units/mL penicillin/10 U/mL streptomycin/29.2 μg/mL glutamine ((PSG 1%, Invitrogen #10378), 400 μg/mL zeocin (Invitrogen #R250) in black-walled, clear-bottom 384-well poly-D-lysine-coated assay plates (Greiner Bio-One, Frickenhausen, Germany) and incubated in a humidified 5% CO2 incubator at 37° C. On the day of the assay, medium was removed by aspiration, and cells were washed with assay buffer [HBSS (Invitrogen, Carlsbad, Calif.) containing 20 mM HEPES (Invitrogen, Carlsbad, Calif.)]. After washing, 30 μL assay buffer containing the fluorescent voltage-sensor probe CC2-DMPE (Invitrogen, Carlsbad, Calif.) at 20 μM and 0.01% pluronic F-127 (Invitrogen, Carlsbad, Calif.) was added to the cells. Cells were incubated for 40 minutes at room temperature in the dark. Following the incubation, the cells were washed and 30 μL assay buffer containing 2.5 μM DiSBAC2(3) substrate (Invitrogen, Carlsbad, Calif.) and 0.5 mM VABSC-1 (Invitrogen, Carlsbad, Calif.) was added to the cells. The cells were incubated for 60 minutes at room temperature in the dark. Fluorescence readings were made using a FLIPR®^TETRA (Molecular Devices, Sunnyvale Calif.) equipped with voltage-sensor probe optics. The depolarizing agent, veratridine (Sigma-Aldrich, St. Louis, Mo.), was made up at 3× concentrations in assay buffer containing 1 mg/mL scorpion venom (SVqq, from Leiurus quinquestriatus; Sigma-Aldrich, St. Louis, Mo.). The assay agonist/opener concentration was determined each day using a 6-point veratridine concentration curve in duplicate, tested with three concentrations of tetracaine (0.1, 0.06, 0.01 μM all in 0.03% dimethyl sulfoxide) and 0.03% dimethyl sulfoxide control in assay buffer. […] Test compounds in the daughter plate were diluted to (˜3×) solutions in assay buffer immediately before assaying. Using the FLIPR®^TETRA, 20 μL of the (3×) compound solutions were first added to the cells, then 20 μL of depolarizing solution (3×EC80 veratridine+SVqq) were added 3 minutes later to activate the channel. Changes in fluorescence were measured at wavelengths of 440-480 nm and 565-625 nm over the course of the experimental run. Membrane depolarization was expressed as a ratio of the maximum F440-480 nm/F565-625 nm reading above average baseline F440-480 nm/F565-625 nm reading. IC50 values were calculated from curve fits of the ratio data using a four-parameter logistic Hill equation (Accelrys Assay Explorer 3.3 Client, Accelrys, San Diego, Calif.) with percent inhibition plotted against compound concentration.

Another assay concerns the target human Nav1.7 (Homo sapiens (Human), UniProt Q15858). Nature of the assay: FRET-based membrane potential assay, recombinant human sodium channel Nav1.7. Format: cell-based. Conditions: HEK293 cells stably expressing recombinant human Nav1.7; depolarization with veratridine (EC80) + scorpion venom. The method, boiled down: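 IC50 derived by four-parameter Hill fit of percent inhibition of depolarization, measured as peak F440-480/F565-625 ratio over baseline. Stable human Nav1.7 HEK293 cells, dye-loaded with CC2-DMPE and DiSBAC2(3)/VABSC-1 at room temperature, received compound 3 min ahead of veratridine (EC80) plus scorpion venom.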

human Nav1.7, sequence (Q15858 whole entry): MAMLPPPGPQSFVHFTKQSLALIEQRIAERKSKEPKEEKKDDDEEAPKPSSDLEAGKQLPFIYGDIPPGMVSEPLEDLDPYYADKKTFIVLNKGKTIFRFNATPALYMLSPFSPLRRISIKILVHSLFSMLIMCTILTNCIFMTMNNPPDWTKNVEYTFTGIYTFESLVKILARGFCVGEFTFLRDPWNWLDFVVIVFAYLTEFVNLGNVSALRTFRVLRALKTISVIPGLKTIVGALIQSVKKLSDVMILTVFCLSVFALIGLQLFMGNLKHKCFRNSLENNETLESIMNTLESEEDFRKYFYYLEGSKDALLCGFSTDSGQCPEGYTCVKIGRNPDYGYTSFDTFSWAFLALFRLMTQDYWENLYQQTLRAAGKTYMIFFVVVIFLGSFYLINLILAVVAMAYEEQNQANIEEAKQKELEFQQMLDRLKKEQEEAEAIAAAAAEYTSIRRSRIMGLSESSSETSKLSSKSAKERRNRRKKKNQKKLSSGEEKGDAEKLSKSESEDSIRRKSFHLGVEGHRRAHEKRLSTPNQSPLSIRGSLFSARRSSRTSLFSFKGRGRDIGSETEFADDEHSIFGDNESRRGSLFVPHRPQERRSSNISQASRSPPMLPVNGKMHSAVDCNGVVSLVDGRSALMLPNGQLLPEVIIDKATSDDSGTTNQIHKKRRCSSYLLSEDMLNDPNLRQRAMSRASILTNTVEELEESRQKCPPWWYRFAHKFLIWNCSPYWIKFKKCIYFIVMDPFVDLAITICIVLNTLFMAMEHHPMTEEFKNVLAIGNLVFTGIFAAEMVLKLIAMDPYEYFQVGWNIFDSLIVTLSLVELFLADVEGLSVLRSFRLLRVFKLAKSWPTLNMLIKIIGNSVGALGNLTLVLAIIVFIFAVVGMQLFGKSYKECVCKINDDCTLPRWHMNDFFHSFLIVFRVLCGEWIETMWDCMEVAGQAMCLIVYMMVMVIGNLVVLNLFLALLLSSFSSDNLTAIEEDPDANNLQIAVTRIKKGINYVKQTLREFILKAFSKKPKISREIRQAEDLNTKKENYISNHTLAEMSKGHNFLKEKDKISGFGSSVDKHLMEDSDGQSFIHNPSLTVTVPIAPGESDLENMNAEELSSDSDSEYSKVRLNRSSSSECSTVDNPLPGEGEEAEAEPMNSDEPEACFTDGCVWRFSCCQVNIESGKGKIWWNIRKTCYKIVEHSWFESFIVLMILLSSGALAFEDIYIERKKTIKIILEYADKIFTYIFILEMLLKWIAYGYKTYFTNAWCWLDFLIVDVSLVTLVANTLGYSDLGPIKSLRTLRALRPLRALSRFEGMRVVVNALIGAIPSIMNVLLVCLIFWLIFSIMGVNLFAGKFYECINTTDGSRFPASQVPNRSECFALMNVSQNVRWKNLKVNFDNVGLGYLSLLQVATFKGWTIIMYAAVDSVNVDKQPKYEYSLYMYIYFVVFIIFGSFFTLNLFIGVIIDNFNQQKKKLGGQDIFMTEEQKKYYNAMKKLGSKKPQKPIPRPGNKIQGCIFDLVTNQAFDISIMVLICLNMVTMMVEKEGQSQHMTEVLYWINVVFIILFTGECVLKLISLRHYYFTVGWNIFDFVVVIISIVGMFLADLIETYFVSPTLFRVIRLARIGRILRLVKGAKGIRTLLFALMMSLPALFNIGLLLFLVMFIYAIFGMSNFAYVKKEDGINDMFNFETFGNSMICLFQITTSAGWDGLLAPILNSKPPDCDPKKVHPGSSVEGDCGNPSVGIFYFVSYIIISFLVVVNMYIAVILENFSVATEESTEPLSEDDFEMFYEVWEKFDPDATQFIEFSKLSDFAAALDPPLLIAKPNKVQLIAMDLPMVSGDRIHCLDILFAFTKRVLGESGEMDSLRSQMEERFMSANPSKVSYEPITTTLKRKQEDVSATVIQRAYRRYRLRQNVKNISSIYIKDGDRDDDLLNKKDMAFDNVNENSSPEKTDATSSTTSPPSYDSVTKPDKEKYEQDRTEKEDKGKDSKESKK
human Nav1.8, sequence (Q9Y5Y9 whole entry): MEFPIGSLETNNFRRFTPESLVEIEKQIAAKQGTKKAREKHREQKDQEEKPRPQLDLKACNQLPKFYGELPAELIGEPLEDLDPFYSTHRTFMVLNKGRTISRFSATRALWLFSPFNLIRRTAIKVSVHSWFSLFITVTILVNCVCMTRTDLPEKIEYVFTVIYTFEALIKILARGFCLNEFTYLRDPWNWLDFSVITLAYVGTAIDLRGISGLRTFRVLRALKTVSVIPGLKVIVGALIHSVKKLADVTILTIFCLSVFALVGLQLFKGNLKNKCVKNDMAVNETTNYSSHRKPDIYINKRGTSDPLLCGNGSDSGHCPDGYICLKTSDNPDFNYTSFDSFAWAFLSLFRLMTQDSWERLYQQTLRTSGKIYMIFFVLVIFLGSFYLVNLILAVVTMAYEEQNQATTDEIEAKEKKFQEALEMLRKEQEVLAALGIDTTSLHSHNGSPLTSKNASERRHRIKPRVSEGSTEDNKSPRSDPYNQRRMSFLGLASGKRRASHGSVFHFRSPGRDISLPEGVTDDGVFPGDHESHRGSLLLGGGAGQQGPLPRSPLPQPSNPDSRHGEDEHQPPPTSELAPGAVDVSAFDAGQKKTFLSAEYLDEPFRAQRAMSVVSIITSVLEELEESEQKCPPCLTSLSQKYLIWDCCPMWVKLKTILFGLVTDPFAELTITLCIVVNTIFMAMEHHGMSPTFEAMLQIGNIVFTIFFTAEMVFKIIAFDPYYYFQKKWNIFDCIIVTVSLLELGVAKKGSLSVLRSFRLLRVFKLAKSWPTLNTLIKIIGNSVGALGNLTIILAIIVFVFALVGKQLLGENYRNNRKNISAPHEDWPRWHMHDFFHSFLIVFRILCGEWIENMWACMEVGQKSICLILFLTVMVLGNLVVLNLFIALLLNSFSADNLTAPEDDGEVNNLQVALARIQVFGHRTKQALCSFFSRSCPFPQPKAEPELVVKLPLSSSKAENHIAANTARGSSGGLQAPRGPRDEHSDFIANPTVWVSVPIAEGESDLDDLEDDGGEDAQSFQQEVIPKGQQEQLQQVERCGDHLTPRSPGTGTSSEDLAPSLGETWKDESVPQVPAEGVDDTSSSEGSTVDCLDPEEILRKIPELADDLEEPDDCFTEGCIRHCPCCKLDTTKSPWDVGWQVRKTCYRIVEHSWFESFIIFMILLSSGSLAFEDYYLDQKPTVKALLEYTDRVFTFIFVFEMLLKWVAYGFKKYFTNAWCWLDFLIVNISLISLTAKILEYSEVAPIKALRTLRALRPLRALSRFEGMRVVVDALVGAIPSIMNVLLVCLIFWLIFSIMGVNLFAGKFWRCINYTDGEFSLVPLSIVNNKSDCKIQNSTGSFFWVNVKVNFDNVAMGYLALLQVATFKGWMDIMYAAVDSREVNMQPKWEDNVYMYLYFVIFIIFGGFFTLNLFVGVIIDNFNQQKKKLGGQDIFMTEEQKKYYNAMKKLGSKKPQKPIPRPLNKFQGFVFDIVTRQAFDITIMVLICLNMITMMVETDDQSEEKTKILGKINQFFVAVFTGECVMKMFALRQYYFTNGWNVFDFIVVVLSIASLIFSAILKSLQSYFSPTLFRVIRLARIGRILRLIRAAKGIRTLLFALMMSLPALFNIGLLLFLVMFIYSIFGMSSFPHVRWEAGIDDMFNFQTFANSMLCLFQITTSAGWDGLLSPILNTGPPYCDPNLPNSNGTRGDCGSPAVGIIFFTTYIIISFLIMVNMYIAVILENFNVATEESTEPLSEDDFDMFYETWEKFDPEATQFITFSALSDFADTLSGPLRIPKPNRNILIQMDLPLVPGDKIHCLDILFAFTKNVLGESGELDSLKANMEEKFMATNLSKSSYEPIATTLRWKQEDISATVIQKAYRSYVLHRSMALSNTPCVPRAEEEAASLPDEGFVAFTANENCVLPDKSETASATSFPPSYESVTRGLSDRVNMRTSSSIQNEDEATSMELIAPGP

Take `CC(C)COC(=O)N1CCN(c2cccc3c2cnn3-c2ccccc2F)C1=O` [Example 5, isobutyl 3-[1-(2-fluorophenyl)-1H-indazol-4-yl]-2-oxoimidazolidine-1-carboxylate]: the IC50 on human Nav1.8 stood at 0.0572 µM; at human Nav1.7 it was 0.166 µM.
On the same counts, the results for `O=C(Cn1ccn(-c2cccc3c2cnn3-c2ccccc2F)c1=O)N1CC[C@H](F)C1` [Example 11, 1-[1-(2-fluorophenyl)-1H-indazol-4-yl]-3-{2-[(3S)-3-fluoropyrrolidin-1-yl]-2-oxoethyl}-1,3-dihydro-2H-imidazol-2-one] are 1.47 µM and 0.483 µM.
For `O=C(CN1CCN(c2cccc3c2cnn3-c2ccccc2F)C1=O)N1CCC(F)CC1` [Example 69, 1-[1-(2-fluorophenyl)-1H-indazol-4-yl]-3-[2-(4-fluoropiperidin-1-yl)-2-oxoethyl]imidazolidin-2-one] the same measures were 4.8 µM and 2.95 µM.
As to `O=C(CN1CCN(c2cccc3c2cnn3-c2ccccc2F)C1=O)NCC1CCOC1` (centres unmarked) [Example 75, 2-{3-[1-(2-fluorophenyl)-1H-indazol-4-yl]-2-oxoimidazolidin-1-yl}-N-(tetrahydrofuran-3-ylmethyl)acetamide], the IC50 at human Nav1.8 is 12.1 µM; at human Nav1.7 it was 7.49 µM.
For `O=C(CN1CCN(c2cccc3c2cnn3-c2ccccc2F)C1=O)N[C@H]1CCOC1` [Example 87, 2-{3-[1-(2-fluorophenyl)-1H-indazol-4-yl]-2-oxoimidazolidin-1-yl}-N-[(3S)-tetrahydrofuran-3-yl]acetamide] the same measures were 5.56 µM and 2.46 µM.
For `O=C(CN1CCN(c2cccc3c2cnn3-c2cccc(OC(F)(F)F)c2)C1=O)N1CC[C@H](F)C1` [Example 88, 1-{2-[(3S)-3-fluoropyrrolidin-1-yl]-2-oxoethyl}-3-{1-[3-(trifluoromethoxy)phenyl]-1H-indazol-4-yl}imidazolidin-2-one] the same measures were 1.37 µM and 0.351 µM.
Take `CCN(CC)C(=O)CN1CCN(c2cccc3c2cnn3-c2ccccc2F)C1=O` [Example 93, N,N-diethyl-2-{3-[1-(2-fluorophenyl)-1H-indazol-4-yl]-2-oxoimidazolidin-1-yl}acetamide]: the IC50 at human Nav1.8 was found to be 5.18 µM; on human Nav1.7, 10.7 µM.
For `O=C1CCC(N2CCN(c3cccc4c3cnn4-c3ccccc3F)C2=O)CC1` [Example 266, 1-[1-(2-fluorophenyl)-1H-indazol-4-yl]-3-(4-oxocyclohexyl)imidazolidin-2-one], the IC50 on human Nav1.7 was determined as 3.02 µM.
The same measure, in the same setting: to `CC(C)(C)OC(=O)N1CC(N2CCN(c3cccc4c3cnn4-c3ccccc3F)C2=O)C1` [Example 267, tert-butyl 3-{3-[1-(2-fluorophenyl)-1H-indazol-4-yl]-2-oxoimidazolidin-1-yl}azetidine-1-carboxylate] belongs 1.09 µM; to `O=C1N(c2cccc3c2cnn3-c2ccccc2F)CCN1C1CNC1` [Example 268, 1-(azetidin-3-yl)-3-[1-(2-fluorophenyl)-1H-indazol-4-yl]imidazolidin-2-one], 15 µM.
The same measure, in the same setting: the value for `O=C1N(c2cccc3c2cnn3-c2ccccc2F)CCN1C1CN(C(=O)C2(O)CC2)C1` [Example 269, 1-[1-(2-fluorophenyl)-1H-indazol-4-yl]-3-{1-[(1-hydroxycyclopropyl)carbonyl]azetidin-3-yl}imidazolidin-2-one] was 5.79 µM.
The same measure, in the same setting: the value for `NC(=O)C(=O)N1CC(N2CCN(c3cccc4c3cnn4-c3ccccc3F)C2=O)C1` [Example 270, 2-(3-{3-[1-(2-fluorophenyl)-1H-indazol-4-yl]-2-oxoimidazolidin-1-yl}azetidin-1-yl)-2-oxoacetamide] was 5.87 µM; that for `CS(=O)(=O)N1CC(N2CCN(c3cccc4c3cnn4-c3ccccc3F)C2=O)C1` [Example 271, 1-[1-(2-fluorophenyl)-1H-indazol-4-yl]-3-[1-(methylsulfonyl)azetidin-3-yl]imidazolidin-2-one] was 3.45 µM.
With `O=C1N(c2cccc3c2cnn3-c2ccccc2F)CCN1[C@@H]1CCCC[C@H]1OCc1ccccc1` [Example 272, 1-[(1R,2R)-2-(benzyloxy)cyclohexyl]-3-[1-(2-fluorophenyl)-1H-indazol-4-yl]imidazolidin-2-one], the IC50 on human Nav1.7 turned out to be 0.338 µM.
Same read-out and setting: the value for `O=C1N(c2cccc3c2cnn3-c2ccccc2F)CCN1[C@@H]1CCCC[C@H]1O` [Example 273, 1-[1-(2-fluorophenyl)-1H-indazol-4-yl]-3-[(1R,2R)-2-hydroxycyclohexyl]imidazolidin-2-one] was 4.86 µM; that for `O=C(CN1CCN(c2cccc3c2cnn3-c2ccccc2)C1=O)N1CCCC1` [Example 277, 1-[2-oxo-2-(pyrrolidin-1-yl)ethyl]-3-(1-phenyl-1H-indazol-4-yl)imidazolidin-2-one] was 3.06 µM.
On the same count and under the same terms, the value for `O=C(CN1CCN(c2cccc3c2cnn3-c2ccccn2)C1=O)N1CCCC1` [Example 278, 1-[2-oxo-2-(pyrrolidin-1-yl)ethyl]-3-[1-(pyridin-2-yl)-1H-indazol-4-yl]imidazolidin-2-one] was 5.78 µM; that for `CCOC(=O)/C=C\N1CCN(c2cccc3c2cnn3-c2ccccc2F)C1=O` [Example 287, ethyl (2Z)-3-{3-[1-(2-fluorophenyl)-1H-indazol-4-yl]-2-oxoimidazolidin-1-yl}acrylate] was 5.8 µM; that for `CCOC(=O)/C=C/N1CCN(c2cccc3c2cnn3-c2ccccc2F)C1=O` [Example 288, ethyl (2E)-3-{3-[1-(2-fluorophenyl)-1H-indazol-4-yl]-2-oxoimidazolidin-1-yl}acrylate] was 5.3 µM.
Turning to `CO[C@H]1C[C@H](NC(=O)CN2CCN(c3cccc4c3cnn4-c3ccccc3F)C2=O)C1` [Example 326, 2-{3-[1-(2-fluorophenyl)-1H-indazol-4-yl]-2-oxoimidazolidin-1-yl}-N-(trans-3-methoxycyclobutyl)acetamide], the IC50 on human Nav1.8 was determined as 5.25 µM.
As for `CC1(C)CC1NC(=O)CN1CCN(c2cccc3c2cnn3-c2ccccc2F)C1=O` (centres unmarked) [Example 328, N-(2,2-dimethylcyclopropyl)-2-{3-[1-(2-fluorophenyl)-1H-indazol-4-yl]-2-oxoimidazolidin-1-yl}acetamide], on human Nav1.7, the IC50 worked out at 3.02 µM.
Same read-out and setting: to `O=C(CN1CCN(c2cccc3c2cnn3-c2ccccc2F)C1=O)N1CCC(C(F)F)C1` (centres unmarked) [Example 330, 1-{2-[3-(difluoromethyl)pyrrolidin-1-yl]-2-oxoethyl}-3-[1-(2-fluorophenyl)-1H-indazol-4-yl]imidazolidin-2-one] belongs 1.15 µM.
With `CN1CCN(c2cccc3c2cnn3-c2ccccc2F)C1=O` [Example 344, 1-[1-(2-fluorophenyl)-1H-indazol-4-yl]-3-methylimidazolidin-2-one], the IC50 on human Nav1.8 turned out to be 7.38 µM.
With `O=C(CN1CCN(c2cccc3c2cnn3-c2ccccc2F)C1=O)NC1CCC(F)(F)CC1` [Example 356, N-(4,4-difluorocyclohexyl)-2-{3-[1-(2-fluorophenyl)-1H-indazol-4-yl]-2-oxoimidazolidin-1-yl}acetamide], the IC50 on human Nav1.7 amounted to 1.86 µM.
Still for that read-out and setting: the value for `CC(C)(C)CNC(=O)CN1CCN(c2cccc3c2cnn3-c2ccccc2F)C1=O` [Example 357, N-(2,2-dimethylpropyl)-2-{3-[1-(2-fluorophenyl)-1H-indazol-4-yl]-2-oxoimidazolidin-1-yl}acetamide] was 3.06 µM.
